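Each compound was tested at five concentrations against cells in 96-well plates for 48 hours. Abbreviation: GI50, concentration required for 50% inhibition of growth.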 Calls of active or inactive are those of the source. Rule as the data show it: active = GI50 up to about 1.1 µM and inactive = higher.
Tests used:
Assay in all cases: NCI-60 cell line screen, 48 h
A498 = system: A498
ACHN = system: ACHN
BT-549 = system: BT-549
CAKI-1 = system: CAKI-1
EKVX = system: EKVX
HL-60 = system: HL-60
HT-29 = system: HT-29
KM12 = system: KM12
MDA-MB-231 = system: MDA-MB-231
NCI-H226 = system: NCI-H226
NCI-H460 = system: NCI-H460
OVCAR-5 = system: OVCAR-5
RXF 393 = system: RXF 393
SF-539 = system: SF-539
SK-MEL-28 = system: SK-MEL-28
SK-MEL-5 = system: SK-MEL-5
SNB-19 = system: SNB-19
SNB-75 = system: SNB-75
SR = system: SR

Structure (SMILES) | GI50 (A498) | GI50 (ACHN) | GI50 (BT-549) | GI50 (CAKI-1) | GI50 (EKVX) | GI50 (HL-60) | GI50 (HT-29) | GI50 (KM12) | GI50 (MDA-MB-231) | GI50 (NCI-H226) | GI50 (NCI-H460) | GI50 (OVCAR-5) | GI50 (RXF 393) | GI50 (SF-539) | GI50 (SK-MEL-28) | GI50 (SK-MEL-5) | GI50 (SNB-19) | GI50 (SNB-75) | GI50 (SR)
Oc1ccc(Cc2cc(Cl)cc(Cl)c2O)cc1Cl | 19.5 µM (inactive) | 17.4 µM (inactive) | 18.8 µM (inactive) | 22.6 µM (inactive) | 19.4 µM (inactive) | 1.04 µM (active) | 20.1 µM (inactive) | 20 µM (inactive) | 18.6 µM (inactive) | 21.1 µM (inactive) | 17.8 µM (inactive) | 18.4 µM (inactive) | 13.4 µM (inactive) | 17.1 µM (inactive) | 17.3 µM (inactive) | 17.5 µM (inactive) | 16.9 µM (inactive) | < 0.01 µM (active) | 14.2 µM (inactive)
O=S1(=O)c2ccccc2C(=NO)c2ccccc21 | > 100 µM (inactive) | > 100 µM (inactive) | 59.2 µM (inactive) | > 100 µM (inactive) | 35.3 µM (inactive) | 14.8 µM (inactive) | > 100 µM (inactive) | > 100 µM (inactive) | > 100 µM (inactive) | > 100 µM (inactive) | > 100 µM (inactive) | > 100 µM (inactive) | 24.8 µM (inactive) | > 100 µM (inactive) | > 100 µM (inactive) | 70.3 µM (inactive) |  | > 100 µM (inactive) | 29.8 µM (inactive)
COc1ccc(-n2c(N)c(C#N)c(C#N)c2-c2cccc([N+](=O)[O-])c2)cc1 | > 100 µM (inactive) | 91 µM (inactive) | > 100 µM (inactive) | > 100 µM (inactive) | 26 µM (inactive) | > 100 µM (inactive) | 25.3 µM (inactive) | 62.5 µM (inactive) | 67 µM (inactive) | > 100 µM (inactive) |  | > 100 µM (inactive) | 2.55 µM (inactive) | 32.4 µM (inactive) |  | 22.9 µM (inactive) | 49.8 µM (inactive) | 2.96 µM (inactive) | 18.7 µM (inactive)
Cn1c(=O)c2c(nc(N)n2C2OC(CO)C(O)C2O)n(C)c1=O (configuration not stated) | > 100 µM (inactive) | > 100 µM (inactive) | > 100 µM (inactive) | > 100 µM (inactive) | > 100 µM (inactive) | > 100 µM (inactive) | > 100 µM (inactive) | > 100 µM (inactive) | > 100 µM (inactive) | > 100 µM (inactive) | > 100 µM (inactive) | > 100 µM (inactive) | > 100 µM (inactive) | > 100 µM (inactive) | > 100 µM (inactive) | > 100 µM (inactive) | > 100 µM (inactive) | > 100 µM (inactive) | > 100 µM (inactive)
Cc1sc2nc3n(c(=O)c2c1C)N=C(c1ccccc1)CS3 | > 100 µM (inactive) | > 100 µM (inactive) | > 100 µM (inactive) | > 100 µM (inactive) | > 100 µM (inactive) | > 100 µM (inactive) | > 100 µM (inactive) | > 100 µM (inactive) | > 100 µM (inactive) | > 100 µM (inactive) | > 100 µM (inactive) | > 100 µM (inactive) | > 100 µM (inactive) | > 100 µM (inactive) | > 100 µM (inactive) | > 100 µM (inactive) |  | > 100 µM (inactive) | > 100 µM (inactive)
CC(C)=CC[C@]12CCN(C)[C@H]1N(S(=O)(=O)c1ccccc1)c1ccccc12 | > 100 µM (inactive) | > 54.2 µM (inactive) | > 56.5 µM (inactive) | > 25.6 µM (inactive) | > 24.2 µM (inactive) | 28.4 µM (inactive) | > 46.5 µM (inactive) | 26.1 µM (inactive) | > 52.4 µM (inactive) | > 38.5 µM (inactive) | > 40.4 µM (inactive) | > 59.8 µM (inactive) | > 38.3 µM (inactive) | 58.9 µM (inactive) | > 64.6 µM (inactive) | 11.9 µM (inactive) | > 20.3 µM (inactive) | 17.3 µM (inactive) | 20.7 µM (inactive)
OCC1CCCCN1Cc1nc2cc(Cl)ccc2[nH]1 (configuration not stated) | > 100 µM (inactive) | > 100 µM (inactive) | > 100 µM (inactive) | > 100 µM (inactive) | > 100 µM (inactive) | > 100 µM (inactive) | 56.1 µM (inactive) | > 100 µM (inactive) | > 100 µM (inactive) | 95.5 µM (inactive) | > 100 µM (inactive) | > 100 µM (inactive) | 65 µM (inactive) | > 100 µM (inactive) | > 100 µM (inactive) | > 100 µM (inactive) | > 100 µM (inactive) | > 100 µM (inactive) | > 100 µM (inactive)
CCCCCCCCCCc1c2nc(c(CCCCCCCCCC)c3ccc([nH]3)c(CCCCCCCCCC)c3nc(c(CCCCCCCCCC)c4ccc1[nH]4)C=C3)C=C2 | > 100 µM (inactive) | > 100 µM (inactive) | > 100 µM (inactive) | > 100 µM (inactive) | > 100 µM (inactive) | > 100 µM (inactive) | > 100 µM (inactive) | > 100 µM (inactive) | > 100 µM (inactive) | > 100 µM (inactive) | > 100 µM (inactive) | > 100 µM (inactive) | > 100 µM (inactive) | > 100 µM (inactive) | > 100 µM (inactive) | > 100 µM (inactive) | > 100 µM (inactive) | > 100 µM (inactive) | > 100 µM (inactive)
O=[N+]([O-])c1ccc(C2ON=C(c3ccccc3)N2C23CC4CC(CC(C4)C2)C3)cc1 (configuration not stated) | > 10 µM (inactive) | > 10 µM (inactive) | > 10 µM (inactive) | > 10 µM (inactive) | > 10 µM (inactive) | > 10 µM (inactive) | > 10 µM (inactive) | > 10 µM (inactive) | > 10 µM (inactive) | > 10 µM (inactive) | > 10 µM (inactive) | > 10 µM (inactive) | > 10 µM (inactive) | 2.89 µM (inactive) | > 10 µM (inactive) | > 10 µM (inactive) | > 10 µM (inactive) | 5.6 µM (inactive) | > 10 µM (inactive)
CCOC(=O)c1cc(C2(O)CCN(CC(C)CC)C2=O)c(-c2cc(C)no2)[nH]1 (configuration not stated) | > 100 µM (inactive) |  | > 100 µM (inactive) | > 100 µM (inactive) | > 100 µM (inactive) | > 100 µM (inactive) | > 100 µM (inactive) | > 100 µM (inactive) | > 100 µM (inactive) | > 100 µM (inactive) | > 100 µM (inactive) | > 100 µM (inactive) | > 100 µM (inactive) | > 100 µM (inactive) | > 100 µM (inactive) | > 100 µM (inactive) | > 100 µM (inactive) | > 100 µM (inactive) | > 100 µM (inactive)
c1ccc(C2=Nc3nc4ccccc4n3C(c3ccccc3)C2)cc1 (configuration not stated) | > 100 µM (inactive) | > 100 µM (inactive) | > 100 µM (inactive) | > 100 µM (inactive) | > 100 µM (inactive) | > 100 µM (inactive) | > 100 µM (inactive) | > 100 µM (inactive) | 70.6 µM (inactive) | > 100 µM (inactive) | > 100 µM (inactive) | > 100 µM (inactive) | 41 µM (inactive) | > 100 µM (inactive) | > 100 µM (inactive) | > 100 µM (inactive) | 44.8 µM (inactive) | 27.9 µM (inactive) | > 100 µM (inactive)
N=C(N)/N=C(\N)Nc1ccc(C(=O)O)cc1 | > 100 µM (inactive) | > 100 µM (inactive) | > 100 µM (inactive) | > 100 µM (inactive) | > 100 µM (inactive) | > 100 µM (inactive) | > 100 µM (inactive) | > 100 µM (inactive) | > 100 µM (inactive) | > 100 µM (inactive) | > 100 µM (inactive) | > 100 µM (inactive) | > 100 µM (inactive) | > 100 µM (inactive) | > 100 µM (inactive) | > 100 µM (inactive) | > 100 µM (inactive) | > 100 µM (inactive) | > 100 µM (inactive)
O=C1CCc2cc([N+](=O)[O-])ccc2O1 | > 100 µM (inactive) | > 100 µM (inactive) | > 100 µM (inactive) | > 100 µM (inactive) | > 100 µM (inactive) | > 100 µM (inactive) | > 100 µM (inactive) |  | > 100 µM (inactive) | > 100 µM (inactive) | > 100 µM (inactive) | > 100 µM (inactive) | > 100 µM (inactive) | > 100 µM (inactive) | > 100 µM (inactive) | > 100 µM (inactive) | > 100 µM (inactive) | > 100 µM (inactive) | > 100 µM (inactive)
CCOc1ccc(NC(=O)C(=O)Nn2c(N)nnc2N)cc1 | > 100 µM (inactive) | > 100 µM (inactive) | > 100 µM (inactive) | > 100 µM (inactive) | > 100 µM (inactive) | > 100 µM (inactive) | > 100 µM (inactive) | > 100 µM (inactive) | > 100 µM (inactive) | > 100 µM (inactive) | > 100 µM (inactive) | > 100 µM (inactive) | > 100 µM (inactive) | > 100 µM (inactive) | > 100 µM (inactive) | > 100 µM (inactive) |  | > 100 µM (inactive) | > 100 µM (inactive)
O=c1[nH]nc(Cc2ccccc2)n1/N=C\CC/C=N\n1c(Cc2ccccc2)n[nH]c1=O | > 100 µM (inactive) | 49.9 µM (inactive) | 25.8 µM (inactive) | > 100 µM (inactive) | 36.6 µM (inactive) | 21.9 µM (inactive) | 23.4 µM (inactive) | > 100 µM (inactive) | 61.9 µM (inactive) | 33.9 µM (inactive) |  | > 100 µM (inactive) | 24.3 µM (inactive) | 19 µM (inactive) | 30.1 µM (inactive) | 29.2 µM (inactive) | 42.9 µM (inactive) | 24.4 µM (inactive) | 9.77 µM (inactive)
